Source: US20110251104A1, “COMPOSITIONS AND METHODS FOR DETECTING DEACETYLASE ACTIVITY” (priority 2010, published 2011)

Target: T1, Sirt1 (Homo sapiens, UniProt Q96EB6)
T1 construct: purchased
T1 sequence (Q96EB6 1-747): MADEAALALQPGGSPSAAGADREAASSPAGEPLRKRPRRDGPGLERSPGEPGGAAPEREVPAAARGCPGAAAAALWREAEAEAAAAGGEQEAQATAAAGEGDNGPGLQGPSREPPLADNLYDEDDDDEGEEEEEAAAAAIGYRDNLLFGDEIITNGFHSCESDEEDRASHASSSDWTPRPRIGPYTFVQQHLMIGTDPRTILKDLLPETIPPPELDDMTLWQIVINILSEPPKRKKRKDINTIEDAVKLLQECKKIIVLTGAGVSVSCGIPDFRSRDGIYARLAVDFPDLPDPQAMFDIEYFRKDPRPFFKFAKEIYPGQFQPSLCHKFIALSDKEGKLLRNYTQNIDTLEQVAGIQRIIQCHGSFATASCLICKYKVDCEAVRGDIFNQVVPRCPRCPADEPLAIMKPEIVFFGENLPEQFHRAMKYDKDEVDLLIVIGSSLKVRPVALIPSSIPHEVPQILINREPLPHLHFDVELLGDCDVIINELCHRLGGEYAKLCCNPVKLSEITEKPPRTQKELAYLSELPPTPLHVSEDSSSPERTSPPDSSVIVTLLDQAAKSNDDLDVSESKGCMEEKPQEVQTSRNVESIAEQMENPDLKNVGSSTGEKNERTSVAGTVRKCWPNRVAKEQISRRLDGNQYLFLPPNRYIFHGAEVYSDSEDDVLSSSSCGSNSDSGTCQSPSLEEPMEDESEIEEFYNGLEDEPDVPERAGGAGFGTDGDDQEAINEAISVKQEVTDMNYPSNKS
Experiment: Km determination for SIRT1 substrates by RapidFire mass spectrometric quantification of acetyl-ADPr
Format: biochemical
Settings: room temperature, 50 mM Tris pH 7.5, 1/1500 dilution of enzyme, acetyl-ADPr detection
From the text: A high-throughput in vitro assay using the current invention was developed against a commercially available SIRT1 enzyme preparation. The assay was then used to fully characterize the enzyme preparation through a series of kinetic and end-point assays. Commercially available ADP-ribose was used to develop mass spectrometric methods and separation techniques for sensitive and selective detection in the assay. A quantitative analysis method for acetyl-ADPr, a compound that has a chemical structure and properties similar to ADP-ribose, was developed based on the method developed for ADP-ribose.
Next, ADP-ribose was dissolved at a concentration of 1.0 micromolar in an assay buffer consisting of 50 mM Tris pH 7.5 containing 137 mM NaCl, 2.7 mM KCl, 1 mM MgCl2, 0.1% BSA, 1 mM NAD^+. Separation conditions to purify ADP-ribose from the assay buffer for mass spectrometric analysis were developed on a RapidFire® 200 High-Throughput Mass Spetrometry system. The optimized conditions for sample desalting were determined to be a sample wash with water for 3 seconds at a flow rate of 1.5 mL/min and sample elution with a 2:1:1 solution of water:acetonitrile:acetone containing 5 mM ammonium acetate for 3.5 seconds at a flow rate of 1.25 mL/min. […]

Km: 54 ± 1 µM
Structure (SMILES): NC(=O)c1ccc[n+]([C@@H]2O[C@H](COP(=O)([O-])OP(=O)(O)OC[C@H]3O[C@@H](n4cnc5c(N)ncnc54)[C@H](O)[C@@H]3O)[C@@H](O)[C@H]2O)c1 [NAD+, nicotimamide adenine dinucleotide]
